For two compounds, EC50 results are on record in PMC4245160 (ACS Chemical Biology, 2014).

In the assay the target is T1, mouse OR-I7 (Mus musculus, UniProt Q9QWU6).
T1 sequence (Q9QWU6 1-327): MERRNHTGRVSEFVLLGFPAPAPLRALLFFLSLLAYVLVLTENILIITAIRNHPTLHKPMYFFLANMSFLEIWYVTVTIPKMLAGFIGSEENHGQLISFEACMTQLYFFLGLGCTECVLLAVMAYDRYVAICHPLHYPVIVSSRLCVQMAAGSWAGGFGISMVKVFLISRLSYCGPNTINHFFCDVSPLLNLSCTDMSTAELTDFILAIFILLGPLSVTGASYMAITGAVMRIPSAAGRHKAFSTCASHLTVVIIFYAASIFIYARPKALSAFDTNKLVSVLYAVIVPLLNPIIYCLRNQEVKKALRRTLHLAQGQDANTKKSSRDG
Briefly: GloSensor cAMP assay in Hana3A cells expressing recombinant receptor. The assay is classed as cell-based. In general terms: Cyclic AMP is a second messenger, typically raised through Gs and lowered through Gi signalling.

`CCCCCCCC=O` [compound 1, octanal]: the EC50 (usually the concentration at which the effect is half-maximal) was approximately 1.5 µM. Regarding `CCCCCCC(F)(F)C=O` [compound 2, 2,2-difluorooctanal], the EC50 is approximately 10 µM.
